Laboratory results as given in US7026344B2, “Treating sickle cell disease” (priority 2000, dated 2006).
Values joined by “and” are separate entries in the source; they are usually repeats but may differ in a detail not shown here. Equal values may be shown once. Read-outs that look alike come from different tables or passages of the source.

How the values were obtained:
[1] = tested on: erythroid progenitors (BFU-E colonies) from normal donors; assay: BFU-E colony growth in methylcellulose culture, normal donors; assay type: cell-based, human
Description: (§1) BFU-E Colony Growth. Mononuclear cells were isolated from the peripheral blood of each patient studied by density gradient centrifugation using Histapaque-1077 (Sigma). Erythroid progenitors were obtained in methylcellulose culture. ZL was added on day 0 at 25, 50, 75, or 100 μM concentrations for 13–14 days at which time the number of BFU-E colonies were counted on an inverted microscope and harvested for hemoglobin determinations.
The cytotoxic effect of HU as been proposed as a basic mechanism involved in hemoglobin F induction. In the absence of this characteristic for ZL, whether γ gene expression would be, induced in erythroid progenitors obtained from normal donors was tested. Utilizing the same protocol, BFU-E colonies from normal donors wee analyzed in the presence of ZL at 0 to 100 μM concentrations. In normal erythroid progenitors, a decrease in BFU-E colony number from 94±30.6 to 10.1±2.4 (FIG. 3A) and an increase in hemoglobin F from 1.4±0.05% to […] (FIG. 3B) was observed. This pattern was similar to that obtained for Hb SS progenitors. Of note is the lower average BFU-E colony number for hemoglobin A progenitors as compared with hemoglobin S. This probably reflects the absence of hemolysis and increased RBC production in normals as compared to sickle cell patients. This represents a 9.3-fold decrease and a 4.3-fold increase in BFU-E and hemoglobin F, respectively.

[2] = tested on: fetal hemoglobin production in primary erythroid progenitors from Hb SS patients; assay: Hemoglobin F determination in erythroid progenitors, Hb SS patients; assay type: cell-based, human; conditions: for fold increase in hemoglobin F: 0 versus 100 μM, Hb SS patients; for HbF Difference: 0 vs 100 μM, sickle cell patients
Description: as §1
(§2) Hemoglobin F determination. The erythroid progenitors were collected, washed in PBS then lysed at room temperature in 200 μl of water. The supernatant was split into two tubes, one for total hemoglobin determination and one for hemoglobin F determination. In brief, IgG (10 μl), 1.2 N NaOH (7 μl) and saturated (NH4)2SO4 (70 μl) were added to the hemoglobin F sample. The denatured hemoglobin was pelleted and the supernatant containing hemoglobin F was mixed with 500 μl of tetramethyl benzidine and 500 μl of H2O2 at room temperature then quantitated on a spectrophotometer at 600 nm. The percentage of fetal hemoglobin to total hemoglobin was determined.
(§3) The capability of ZL to induce hemoglobin F in primary erythroid progenitors, grown from peripheral blood mononuclear cells (MNC) was analyzed. BFU-E colonies were grown in methylcellulose cultures supplemented with erthyopoietin and interleukin-3 and ZL at concentration from 0 to 100 μM. Three patients homozygous for hemoglobin S (Hb SS) were analyzed with triplicate experiments. The average BFU-E colony number was 123.2±18.6 without ZL compared to 10.6±2.0 at 100 μM concentrations, p<0.05 (Table 1). […] All pair-wise comparisons for BFU-E and hemoglobin F between 0μ and other concentrations (25, 50, 75 and 100 μM) were significant at p<0.05. The correlation coefficient between the number of BFU-E colonies or percent hemoglobin F and different levels of ZL is −0.90 and +0.79, respectively (p<0.05). […] (See Yang et al., BFU-E colony growth in response to hydroxyurea: correlation between in vitro and in vivo fetal hemoglobin induction. Am J Hematol. 1997; 56:252–258). […] HU either was more efficient in inhibiting BFU-E colony growth or alternatively the baseline number of colonies on an average was higher for the Hb SS patients in the HU cohort.

[3] = tested on: primary erythroid progenitors (BFU-E colonies) from Hb SS patients; assay: BFU-E colony growth in methylcellulose culture, Hb SS patients; assay type: cell-based, human; conditions: for fold decrease in BFU-E colony number: 0 versus 100 μM, Hb SS patients; for BFU-E Difference: 0 vs 100 μM, sickle cell patients
Description: as §1, §3

[4] = tested on: fetal hemoglobin production in normal erythroid progenitors; assay: Hemoglobin F determination in erythroid progenitors, normal donors; assay type: cell-based, human
Description: as §1, §2
The cytotoxic effect of HU as been proposed as a basic mechanism involved in hemoglobin F induction. […] Utilizing the same protocol, BFU-E colonies from normal donors wee analyzed in the presence of ZL at 0 to 100 μM concentrations. […]

[5] = tested on: primary erythroid progenitors (BFU-E colonies) from Hb SS patients; conditions: HU 100 μM, Hb SS patients of the HU cohort (Yang et al.); cited from earlier work
[6] = tested on: fetal hemoglobin production in primary erythroid progenitors from Hb SS patients; conditions: HU 100 μM, Hb SS patients of the HU cohort (Yang et al.); cited from earlier work
[7] = zileuton 25 μM, mean ± SEM of three Hb SS patients
[8] = zileuton 50 μM, mean ± SEM of three Hb SS patients
[9] = zileuton 75 μM, mean ± SEM of three Hb SS patients
[10] = zileuton 100 μM, mean of three Hb SS patients
[11] = zileuton 100 μM, mean of three Hb SS patients, listed as zileuton

CC(c1cc2ccccc2s1)N(O)C(N)=O (racemic) [ZL, (±)-1-(1-Benzo[b]thien-2-ylethyl)-1-hydroxyurea]
fold decrease in BFU-E ([1]; ZL 0 vs 100 μM): 9.3 fold
BFU-E colony number ([1]; ZL 100 μM): 10.1±2.4
fold increase in hemoglobin F [2]: 4.8 fold
HbF Difference [2]: 12.6 ± 1.1%
HbF ([2]; zileuton 25 μM, individual Hb SS patients (No. 1-3)): 3% and 4% and 11%
HbF [2, 7]: 6.2 ± 1.4%
HbF ([2]; zileuton 50 μM, individual Hb SS patients (No. 1-3)): 6% and 7% and 14%
HbF [2, 8]: 11.9 ± 1.3%
HbF ([2]; zileuton 75 μM, individual Hb SS patients (No. 1-3)): 11% (2×) and 18%
HbF [2, 9]: 13.2 ± 1.4%
HbF ([2]; zileuton 100 μM, individual Hb SS patients (No. 1-3)): 13% and 14% and 21%
HbF [2, 10]: 15.9±1.4% and 15.9%
HbF [2, 11]: 15.9 ± 1.4%
fold decrease in BFU-E colony number [3]: 11.7 fold
BFU-E Difference [3]: 112.6 ± 19.1
BFU-E ([3]; zileuton 25 μM, individual Hb SS patients (No. 1-3), colony number, 13–14 days): 137 and 61 and 91
BFU-E [3, 7]: 96.4 ± 11.1
BFU-E ([3]; zileuton 50 μM, individual Hb SS patients (No. 1-3), colony number): 62 and 47 and 72
BFU-E [3, 8]: 60.4 ± 4.3
BFU-E ([3]; zileuton 75 μM, individual Hb SS patients (No. 1-3), colony number): 23 and 27 and 43
BFU-E [3, 9]: 31.1 ± 3.2
BFU-E ([3]; zileuton 100 μM, individual Hb SS patients (No. 1-3), colony number): 13 and 12 and 7
BFU-E [3, 10]: 10.6±2.0 and 10.5
BFU-E [3, 11]: 10.5 ± 1.3
fold increase in hemoglobin F ([4]; ZL 0 vs 100 μM): 4.3 fold
hemoglobin F ([4]; ZL 100 μM): 6.0%

NC(=O)NO [HU, Hydroxyurea]
BFU-E [5]: 7.2
fold increase in hemoglobin F [2]: 3.8 fold
HbF Difference [2]: 14.4 ± 1.5%
fold decrease in BFU-E colony number [3]: 21.3 fold
BFU-E Difference [3]: 146.4 ± 9.1
HbF [6]: 19.4%
